Inconclusive results and toxic doses are left out. Rule for the calls: active = survival T/C of 150% or more; inactive = T/C below 125% in these data.
Test system: CD2F1 mice, L1210 leukemia ip, survival T/C
Test: NCI In Vivo Anticancer Drug Screen. Data for tumor model L1210 Leukemia (intraperitoneal) in CD2F1 (CDF1) mice
Details: higher = longer survival
How it was run: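 Mice carrying a transplanted tumor received test compound or vehicle alone. The value is the measurement in the treated group divided by that in the vehicle-treated control group.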

[1] = endpoint: mean survival time, dose: 100.0 mg/kg/injection, schedule: Q04DX003 (ip), vehicle: saline
[2] = endpoint: mean survival time, dose: 200.0 mg/kg/injection, schedule: Q04DX003 (ip), vehicle: saline with Tween-80
[3] = endpoint: mean survival time, dose: 400.0 mg/kg/injection, schedule: Q04DX003 (ip), vehicle: saline with Tween-80

Measured: T/C

CC(C)(C)C1=CC(=C2C=C(C(C)(C)C)C(=O)C(C(C)(C)C)=C2)C=C(C(C)(C)C)C1=O
inactive: endpoint: mean survival time, dose: 75.0 mg/kg/injection, schedule: Q04DX003 (ip), vehicle: saline with Tween-80 100 % of control | endpoint: mean survival time, dose: 100.0 mg/kg/injection, schedule: Q01DX009 (ip), vehicle: saline with Tween-80 95 % of control | endpoint: mean survival time, dose: 150.0 mg/kg/injection, schedule: Q04DX003 (ip), vehicle: saline with Tween-80 100 % of control | endpoint: mean survival time, dose: 200.0 mg/kg/injection, schedule: Q01DX009 (ip), vehicle: saline with Tween-80 91 % of control | endpoint: mean survival time, dose: 300.0 mg/kg/injection, schedule: Q04DX003 (ip), vehicle: saline with Tween-80 89 % of control | endpoint: mean survival time, dose: 400.0 mg/kg/injection, schedule: Q01DX009 (ip), vehicle: saline with Tween-80 91 % of control

CNC(=O)OCC1C2=C(C(=O)C(C)=C(N)C2=O)N2CC3C(N3C)C12OC (stereo unspecified)
inactive: endpoint: mean survival time, dose: 75.0 mg/kg/injection, schedule: Q01DX001 (ip), vehicle: carboxymethylcellulose (CMC) 113 % of control | endpoint: mean survival time, dose: 150.0 mg/kg/injection, schedule: Q01DX001 (ip), vehicle: carboxymethylcellulose (CMC) 113 % of control

CN(N)C=O
inactive: endpoint: mean survival time, dose: 25.0 mg/kg/injection, schedule: Q04DX003 (ip), vehicle: saline 98 % of control | endpoint: mean survival time, dose: 50.0 mg/kg/injection, schedule: Q04DX003 (ip), vehicle: saline 94 % of control | [1] 102 % of control

Cc1cc2cc3c(=O)[nH]c(=O)nc-3n(CC(O)C(O)C(O)CO)c2cc1C (stereo unspecified)
inactive: endpoint: mean survival time, dose: 100.0 mg/kg/injection, schedule: Q01DX001 (ip), vehicle: saline 103 % of control | endpoint: mean survival time, dose: 200.0 mg/kg/injection, schedule: Q01DX001 (ip), vehicle: saline 107 % of control | endpoint: mean survival time, dose: 400.0 mg/kg/injection, schedule: Q01DX001 (ip), vehicle: saline 98 % of control

CNC(=O)OC
inactive: [1] 102 % of control | endpoint: mean survival time, dose: 200.0 mg/kg/injection, schedule: Q04DX003 (ip), vehicle: saline 110 % of control | endpoint: mean survival time, dose: 400.0 mg/kg/injection, schedule: Q04DX003 (ip), vehicle: saline 108 % of control

Cc1cn(C2CC(O)C(CO)O2)c(=O)nc1N1CCSCC1 (stereo unspecified)
inactive: endpoint: median survival time, dose: 12.5 mg/kg/injection, schedule: Q01DX005 (ip), vehicle: distilled water + Tween-80 101 % of control | endpoint: median survival time, dose: 25.0 mg/kg/injection, schedule: Q01DX005 (ip), vehicle: distilled water + Tween-80 103 % of control | endpoint: median survival time, dose: 50.0 mg/kg/injection, schedule: Q01DX005 (ip), vehicle: distilled water + Tween-80 102 % of control | endpoint: median survival time, dose: 100.0 mg/kg/injection, schedule: Q01DX005 (ip), vehicle: distilled water + Tween-80 101 % of control | endpoint: median survival time, dose: 200.0 mg/kg/injection, schedule: Q01DX005 (ip), vehicle: distilled water + Tween-80 102 % of control

O=Cc1c2c(cc3ccccc13)Nc1ccccc1N2
inactive: endpoint: mean survival time, dose: 100.0 mg/kg/injection, schedule: Q04DX002 (ip), vehicle: saline + alcohol 89 % of control | endpoint: mean survival time, dose: 200.0 mg/kg/injection, schedule: Q04DX002 (ip), vehicle: saline + alcohol 89 % of control | endpoint: mean survival time, dose: 400.0 mg/kg/injection, schedule: Q04DX002 (ip), vehicle: saline + alcohol 86 % of control

CCCCCCP(C)(=O)CCCCCC
inactive: endpoint: mean survival time, dose: 25.0 mg/kg/injection, schedule: Q01DX001 (ip), vehicle: saline with Tween-80 96 % of control | endpoint: mean survival time, dose: 50.0 mg/kg/injection, schedule: Q01DX001 (ip), vehicle: saline with Tween-80 97 % of control | endpoint: mean survival time, dose: 100.0 mg/kg/injection, schedule: Q01DX001 (ip), vehicle: saline with Tween-80 100 % of control

COC(=O)c1cc(C)n(-c2ccc(C)cc2)c1C
inactive: endpoint: mean survival time, dose: 100.0 mg/kg/injection, schedule: Q04DX003 (ip), vehicle: saline with Tween-80 100 % of control | [2] 96 % of control | [3] 97 % of control

NC(=S=O)C(N)=S=O
inactive: endpoint: median survival time, dose: 50.0 mg/kg/injection, schedule: Q01DX005 (ip), vehicle: saline with Tween-80 103 % of control | endpoint: median survival time, dose: 100.0 mg/kg/injection, schedule: Q01DX005 (ip), vehicle: saline with Tween-80 100 % of control | endpoint: median survival time, dose: 200.0 mg/kg/injection, schedule: Q01DX005 (ip), vehicle: saline with Tween-80 111 % of control | endpoint: median survival time, dose: 400.0 mg/kg/injection, schedule: Q01DX005 (ip), vehicle: saline with Tween-80 107 % of control

CC1(C)N=C(N)N=C(N)N1c1cccc(CCCCc2ccc(Cl)c(S(=O)(=O)F)c2)c1
inactive: endpoint: mean survival time, dose: 1.8 mg/kg/injection, schedule: Q01DX009 (ip), vehicle: saline 98 % of control | endpoint: mean survival time, dose: 3.5 mg/kg/injection, schedule: Q01DX009 (ip), vehicle: saline 93 % of control | endpoint: mean survival time, dose: 7.0 mg/kg/injection, schedule: Q01DX009 (ip), vehicle: saline 91 % of control | endpoint: mean survival time, dose: 14.0 mg/kg/injection, schedule: Q01DX009 (ip), vehicle: saline 89 % of control | endpoint: mean survival time, dose: 28.0 mg/kg/injection, schedule: Q01DX009 (ip), vehicle: saline 104 % of control | endpoint: mean survival time, dose: 200.0 mg/kg/injection, schedule: Q04DX003 (ip), vehicle: saline sonified 86 % of control

COc1ccccc1NC(=O)Oc1cccc(OC(=O)c2ccccc2)c1
inactive: endpoint: mean survival time, dose: 100.0 mg/kg/injection, schedule: Q04DX002 (ip), vehicle: saline with Tween-80 96 % of control | endpoint: mean survival time, dose: 200.0 mg/kg/injection, schedule: Q04DX002 (ip), vehicle: saline with Tween-80 103 % of control | endpoint: mean survival time, dose: 400.0 mg/kg/injection, schedule: Q04DX002 (ip), vehicle: saline with Tween-80 88 % of control

N#CC(CC(=O)OCc1ccccc1)NC(=O)OCc1ccccc1 (stereo unspecified)
inactive: [2] 86 % of control | [3] 94 % of control

— PubChem BioAssay AID256 (DTP/NCI, 2004)
